Results from patent US7514254B2, “Plant-derived alkaline alpha-galactosidase” (The State of Israel, Ministry of Agriculture & Rural …, priority 1998, dated 2009).

Assays:
[1] = test system: melon (Cucumis melo) fruit acid form alpha-galactosidase; test: Substrate kinetics (Lineweaver-Burk) of acid alpha-galactosidase; assay type: biochemical, muskmelon (Cucumis melo L. cv C-8); conditions: for Km / Vmax: Lineweaver-Burk
Protocol: For routine analysis and monitoring the activity in the purification steps, alpha-galactosidase was assayed as described by Smart and Pharr (“Characterization of alpha-galactosidase from cucumber leaves”, Plant Physiology, 66:731-734, 1980), using p-nitrophenyl alpha-galactoside (pNPG) as substrate. […] The reaction was terminated after 10 min by adding 1 ml of 5% (w/v) Na2CO3 and activity expressed as nmol nitrophenol per min as measured at 410 nm. […] The assay was started by adding 50 μl enzyme preparation at 35 C and terminated after 10 to 20 min by 2 min boiling. […] For the partial purification of the acid form of alpha-galactosidase the fractions active at pH 5.5 were pooled and concentrated by reverse dialysis against solid sucrose. […] The active fractions were then desalted by dialysis against buffer A for 12 hours with two changes of the buffer. This enzyme fraction was used for the characterization of the acidic form of alpha-galactosidase. […] The substrate specificity of the alpha-galactosidases was tested with pNPG, stachyose, raffinose, melibiose or guar gum (Sigma).

[2] = molecular target: T1, melon (Cucumis melo) fruit alkaline alpha-galactosidase Form I (Cucumis melo, UniProt Q84NI7); test: Substrate kinetics (Lineweaver-Burk) of alkaline alpha-galactosidase Form I; conditions: for Vmax: Lineweaver-Burk
T1 sequence (Q84NI7 1-754): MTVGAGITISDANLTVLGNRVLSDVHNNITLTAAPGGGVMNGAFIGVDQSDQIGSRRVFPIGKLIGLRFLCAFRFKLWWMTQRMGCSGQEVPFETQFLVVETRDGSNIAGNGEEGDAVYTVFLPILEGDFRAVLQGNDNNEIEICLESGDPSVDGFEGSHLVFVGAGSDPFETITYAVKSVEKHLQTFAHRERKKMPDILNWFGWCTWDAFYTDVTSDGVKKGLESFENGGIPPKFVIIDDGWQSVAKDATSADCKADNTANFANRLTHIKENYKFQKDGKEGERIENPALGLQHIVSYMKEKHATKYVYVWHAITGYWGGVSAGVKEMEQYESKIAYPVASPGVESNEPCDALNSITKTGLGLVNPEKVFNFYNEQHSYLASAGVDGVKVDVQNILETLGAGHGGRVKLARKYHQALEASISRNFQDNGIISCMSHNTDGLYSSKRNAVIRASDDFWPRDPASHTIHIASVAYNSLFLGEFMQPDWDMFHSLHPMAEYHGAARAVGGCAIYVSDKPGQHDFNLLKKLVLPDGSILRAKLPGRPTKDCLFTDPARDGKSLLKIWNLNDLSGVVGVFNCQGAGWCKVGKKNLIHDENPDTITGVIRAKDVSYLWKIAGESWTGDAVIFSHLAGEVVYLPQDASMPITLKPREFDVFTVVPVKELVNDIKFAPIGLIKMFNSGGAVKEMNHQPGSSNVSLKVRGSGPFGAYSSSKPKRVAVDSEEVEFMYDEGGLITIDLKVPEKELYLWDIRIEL
Protocol: (§1) For routine analysis and monitoring the activity in the purification steps, alpha-galactosidase was assayed as described by Smart and Pharr (“Characterization of alpha-galactosidase from cucumber leaves”, Plant Physiology, 66:731-734, 1980), using p-nitrophenyl alpha-galactoside (pNPG) as substrate. Reaction was initiated by adding 50 μl enzyme aliquot to either 200 μl 100 mM pH 5.5 McIlvaine buffer or 100 mM pH 7.5 HEPES buffer, containing 5 mM pNPG at 35 C. The reaction was terminated after 10 min by adding 1 ml of 5% (w/v) Na2CO3 and activity expressed as nmol nitrophenol per min as measured at 410 nm. […] The assay was started by adding 50 μl enzyme preparation at 35 C and terminated after 10 to 20 min by 2 min boiling.
(§2) The fractions from the DEAE-Sepharose chromatography which were active at pH 7.5 were pooled and dialyzed against buffer A for 12 h prior to loading onto an HPLC ion exchange chromatography column (Mono-Q HR 5/5, Pharmacia, Uppsala, Sweden), previously equilibrated with buffer A. Bound proteins were eluted with a linear gradient of 0.1 to 0.45 M NaCl and the active fractions were detected using pNPG as substrate at pH 7.5 as described above. […] For the further purification of Form II the active fractions of the peak II were chromatographed on hydrophobic interaction chromatography. The fractions were pooled, brought to 1 M (NH4)2SO4 and loaded on to a hydrophobic interaction column (phenyl-Sepharose CL-4B, 0.5×12 cm, Pharmacia, Uppsala, Sweden) previously equilibrated with buffer A containing 1 M (NH4)2SO4. The protein was eluted with a reverse stepwise gradient from 1 to 0 M (NH4)2SO4 with 50 mM intervals in buffer A. Fractions containing the activity peak were collected and dialyzed for 12 h against buffer A and the dialysate was concentrated by reverse dialysis against solid sucrose. The enzyme, partially purified by hydrophobic interaction chromatography, was used for the characterization of Form II. The active fractions from the hydrophobic interaction column were further purified. Active fractions were separated electrophoretically using a Mini Prep Cell (Bio-Rad Laboratories, Hercules, Calif.) for discontinuous native-PAGE with 7% polyacrylamide, according to manufacturer's instructions. Fractions (0.25 ml/fraction) were assayed at pH 7.5 with pNPG as substrate for the activity. The active fractions were pooled, concentrated by Vivaspin Concentrator (Vivascience LTD, Lincoln, England), and run in a 8% SDS-PAGE. Proteins in the SDS-PAGE were identified using Coomassie Blue staining.
Therefore, the active fractions from the Mono-Q column were used for the characterization of Form I. In addition, the Form I enzyme was further purified, as described in the following section.

[3] = molecular target: T2, melon (Cucumis melo) fruit alkaline alpha-galactosidase Form II (Cucumis melo, UniProt Q84NI6); test: Substrate kinetics (Lineweaver-Burk) of alkaline alpha-galactosidase Form II; assay type: biochemical, muskmelon (Cucumis melo L. cv C-8); conditions: for Vmax: Lineweaver-Burk
T2 construct: native 102 kDa, denatured 92 kDa; assayed at pH 7.5
T2 sequence (Q84NI6 1-772): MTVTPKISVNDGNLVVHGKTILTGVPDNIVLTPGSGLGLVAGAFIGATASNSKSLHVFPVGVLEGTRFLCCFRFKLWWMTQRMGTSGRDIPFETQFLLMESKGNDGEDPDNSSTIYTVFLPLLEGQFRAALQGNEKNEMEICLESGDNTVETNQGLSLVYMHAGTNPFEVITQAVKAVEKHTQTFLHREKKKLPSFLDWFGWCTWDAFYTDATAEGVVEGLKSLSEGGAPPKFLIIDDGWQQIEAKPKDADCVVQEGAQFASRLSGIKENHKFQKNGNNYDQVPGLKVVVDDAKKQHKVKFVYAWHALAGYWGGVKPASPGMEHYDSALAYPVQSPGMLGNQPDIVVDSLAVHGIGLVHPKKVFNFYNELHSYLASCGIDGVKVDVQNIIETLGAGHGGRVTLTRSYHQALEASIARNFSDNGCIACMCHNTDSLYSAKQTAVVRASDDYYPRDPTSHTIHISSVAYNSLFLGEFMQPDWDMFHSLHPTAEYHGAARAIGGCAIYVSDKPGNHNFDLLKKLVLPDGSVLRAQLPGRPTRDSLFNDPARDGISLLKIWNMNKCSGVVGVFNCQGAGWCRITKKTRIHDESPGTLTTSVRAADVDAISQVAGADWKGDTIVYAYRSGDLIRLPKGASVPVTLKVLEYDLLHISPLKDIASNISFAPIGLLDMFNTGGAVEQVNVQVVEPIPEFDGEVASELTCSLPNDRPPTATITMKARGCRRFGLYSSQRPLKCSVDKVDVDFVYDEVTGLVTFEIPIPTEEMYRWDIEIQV
Protocol: as §1, §2

[4] = test system: Escherichia coli K12 alpha-galactosidase; conditions: Schmid and Schmitt 1976; cited from earlier work
[5] = test system: Pseudomonas fluorescens H-601 alpha-galactosidase; conditions: Hashimoto et al. 1991; relative Km values; cited from earlier work
[6] = substrate: O=[N+]([O-])c1ccc(O[C@H]2O[C@H](CO)[C@H](O)[C@H](O)[C@H]2O)cc1; test: purified protein, by the assay type; conditions: other: alkaline Form I; Lineweaver-Burk; 35.0 °C
[7] = substrate: OC[C@H]1O[C@H](OC[C@H]2OC(O)[C@H](O)[C@@H](O)[C@@H]2O)[C@H](O)[C@@H](O)[C@H]1O; test: purified protein, by the assay type; conditions: other: alkaline Form I; Lineweaver-Burk; 35.0 °C
[8] = substrate: OC[C@H]1O[C@H](OC[C@H]2O[C@H](OC[C@H]3O[C@H](O[C@]4(CO)O[C@H](CO)[C@@H](O)[C@@H]4O)[C@H](O)[C@@H](O)[C@@H]3O)[C@H](O)[C@@H](O)[C@H]2O)[C@H](O)[C@@H](O)[C@H]1O; test: purified protein, by the assay type; conditions: other: alkaline Form I; Lineweaver-Burk; 35.0 °C
[9] = substrate: OC[C@H]1O[C@H](OC[C@H]2O[C@H](O[C@]3(CO)O[C@H](CO)[C@@H](O)[C@@H]3O)[C@H](O)[C@@H](O)[C@@H]2O)[C@H](O)[C@@H](O)[C@H]1O; test: purified protein, by the assay type; conditions: other: alkaline Form I; Lineweaver-Burk; 35.0 °C
[10] = raffinose versus melibiose; literature; cited from earlier work

In the case of `O=[N+]([O-])c1ccc(O[C@H]2O[C@H](CO)[C@H](O)[C@H](O)[C@H]2O)cc1` [pNPG, p-nitrophenyl alpha-galactopyranoside], the Vmax/Km ratio [1] is reported as 5.00, the Km [1] is reported as 300 µM and the Vmax [1] is reported as 1.5 μmol mg^−1 protein min^−1. For the same molecule, the “pNPG concentration above which enzyme is inhibited (substrate inhibition)” value ([1]; pNPG as substrate) was “above 5 mM”, the Vmax/Km ratio [2] was 1.17 and the Vmax [2] was 1.4 μmol mg^−1 protein min^−1. The Vmax/Km ratio [3] was 2.63 and the Vmax [3] was 7.9 μmol mg^−1 protein min^−1.

`OC[C@H]1O[C@H](OC[C@H]2OC(O)[C@H](O)[C@@H](O)[C@@H]2O)[C@H](O)[C@@H](O)[C@H]1O` (stereo partly drawn) [Melibiose, 6-O-alpha-D-galactopyranosyl-D-glucose] gave a Vmax/Km ratio [1] of 0.27, a Km [1] of 700 µM and a Vmax [1] of 0.19 μmol mg^−1 protein min^−1. For the same molecule, the Vmax [2] was 0.3 μmol mg^−1 protein min^−1, the Vmax [3] was 0.23 μmol mg^−1 protein min^−1 and the Km [4] was 3200 µM. The Km [5] was 3200 µM.

B1: melon (Cucumis melo) fruit alkaline alpha-galactosidase Form I (Cucumis melo) (protein)
chain: MTVGAGITISDANLTVLGNRVLSDVHNNITLTAAPGGGVMNGAFIGVDQSDQIGSRRVFPIGKLIGLRFLCAFRFKLWWMTQRMGCSGQEVPFETQFLVVETRDGSNIAGNGEEGDAVYTVFLPILEGDFRAVLQGNDNNEIEICLESGDPSVDGFEGSHLVFVGAGSDPFETITYAVKSVEKHLQTFAHRERKKMPDILNWFGWCTWDAFYTDVTSDGVKKGLESFENGGIPPKFVIIDDGWQSVAKDATSADCKADNTANFANRLTHIKENYKFQKDGKEGERIENPALGLQHIVSYMKEKHATKYVYVWHAITGYWGGVSAGVKEMEQYESKIAYPVASPGVESNEPCDALNSITKTGLGLVNPEKVFNFYNEQHSYLASAGVDGVKVDVQNILETLGAGHGGRVKLARKYHQALEASISRNFQDNGIISCMSHNTDGLYSSKRNAVIRASDDFWPRDPASHTIHIASVAYNSLFLGEFMQPDWDMFHSLHPMAEYHGAARAVGGCAIYVSDKPGQHDFNLLKKLVLPDGSILRAKLPGRPTKDCLFTDPARDGKSLLKIWNLNDLSGVVGVFNCQGAGWCKVGKKNLIHDENPDTITGVIRAKDVSYLWKIAGESWTGDAVIFSHLAGEVVYLPQDASMPITLKPREFDVFTVVPVKELVNDIKFAPIGLIKMFNSGGAVKEMNHQPGSSNVSLKVRGSGPFGAYSSSKPKRVAVDSEEVEFMYDEGGLITIDLKVPEKELYLWDIRIEL
B1 showed a Km [6] of 1200 µM, a Km [7] of 20000 µM and a Vmax [7] of 0.3 µmol/min. The Km [8] was 4000 µM, the Vmax [8] was 0.24 µmol/min and the Km [9] was 1500 µM. For the same molecule, the Vmax [9] was 0.56 µmol/min.

B2: alpha-galactosidase from Escherichia coli K12: alpha-galactosidase of Schmid and Schmitt, tetrameric protein (protein, UniProt P06720 1-451, looked up)
Alpha-galactosidase: MMSAPKITFIGAGSTIFVKNILGDVFHREALKTAHIALMDIDPTRLEESHIVVRKLMDSAGASGKITCHTQQKEALEDADFVVVAFQIGGYEPCTVTDFEVCKRHGLEQTIADTLGPGGIMRALRTIPHLWQICEDMTEVCPDATMLNYVNPMAMNTWAMYARYPHIKQVGLCHSVQGTAEELARDLNIDPATLRYRCAGINHMAFYLELERKTADGSYVNLYPELLAAYEAGQAPKPNIHGNTRCQNIVRYEMFKKLGYFVTESSEHFAEYTPWFIKPGREDLIERYKVPLDEYPKRCVEQLANWHKELEEYKKASRIDIKPSREYASTIMNAIWTGEPSVIYGNVRNDGLIDNLPQGCCVEVACLVDANGIQPTKVGTLPSHLAALMQTNINVQTLLTEAILTENRDRVYHAAMMDPHTAAVLGIDEIYALVDDLIAAHGDWLPGWLHR
For B2, the “activity with raffinose as compared to melibiose” value [10] is listed as “about 4%”.
